Data taken from US10189828B2, “1-methylpyrazole-piperazine compounds having multimodal activity against pain” (LABORATORIOS DEL DR. ESTEVE S.A., priority 2014, dated 2019).

Target: human σ1 receptor and human μ-opioid receptor
Assay: μ and σ1 dual binding: human σ1 receptor radioligand assay ([3H](+)-pentazocine, transfected HEK-293 membranes) and human μ-opioid receptor radioligand assay ([3H]-DAMGO, transfected CHO-K1 membranes)
Set-up: key to μ and σ1 dual binding: +: Both Ki-μ and Ki-σ1>=500 nM; ++: One Ki<500 nM while the other Ki is >=500 nM; +++: Both Ki-μ and Ki-σ1<500 nM; ++++: Both Ki-μ and Ki-σ1<100 nM
Settings: for Ki: one combined class for Ki-μ and Ki-σ1

SMILES: Cn1nccc1C(c1ccccc1)N1CCN(CCc2ccc(F)cn2)CC1 (stereo not shown) [Example 34, 1-(2-(5-fluoropyridin-2-yl)ethyl)-4-((1-methyl-1H-pyrazol-5-yl)(phenyl)methyl)piperazine]
- Ki: ≥ 500 nM

SMILES: Cn1nccc1C(c1ccc(Cl)cn1)N1CCN(CCc2ccccc2)CC1 (stereo not shown) [Example 18, 1-((5-chloropyridin-2-yl)(1-methyl-1H-pyrazol-5-yl)methyl)-4-phenethylpiperazine]
- μ and σ1 dual binding: ++

SMILES: Cn1nccc1C(c1ncccc1F)N1CCN(CCc2ccccc2)CC1 (stereo not shown) [Example 16, 1-((3-fluoropyridin-2-yl)(1-methyl-1H-pyrazol-5-yl)methyl)-4-phenethylpiperazine]
- μ and σ1 dual binding: ++

SMILES: Cn1nccc1C(c1ccccc1)N1CCN(CCc2cccc(C(F)(F)F)n2)CC1 (stereo not shown) [Example 42, 1-((1-methyl-1H-pyrazol-5-yl)(phenyl)methyl)-4-(2-(6-(trifluoromethyl)pyridin-2-yl)ethyl)piperazine]
- Ki: ≥ 500 nM
